Patent US20260285879A1, “CDK INHIBITOR AND CRYSTAL FORM OF PHARMACEUTICALLY ACCEPTABLE SALT THEREOF, AND USE THEREOF” (priority 2023, published 2026)

Columns and labels:
[1] = Anhydrous crystalline form transformation test; assay type: physicochemical; conditions: mixed sample of equal amounts of crystalline form A-I and A-IV
[2] = test system: A2780; test: In vitro tumor cell proliferation inhibition (CTG test); assay type: cell-based, human; conditions: ovarian cancer cells A2780
Experimental: (§1) The tumor cell strains were cultured in an incubator at 37° C. with 5% CO2. The cells were sub-cultured regularly, and those in the logarithmic growth phase were taken for plating. The cells were stained with trypan blue and the viable cells were counted. The cell concentration was adjusted to an appropriate level. The cell suspension was added to each well of the culture plate, and the culture medium without cells was added to the blank control wells. The culture plate was incubated overnight in an incubator at 37° C., 5% CO2, and 100% RH. […] The compound working solution was added to the cell culture plate, and DMSO at the same final concentration was added to the solvent control wells. Then the plate was returned to the incubator for 4-7 days of culture. The cell viability was detected according to the instructions of the Promega CellTiter-Glo (CTG) Luminescent Cell Viability Assay Kit (Promega-G7573).
(§2) The inhibition rate (IR) of the test compound was calculated using the following equation: […]
(§3) The inhibition rates of the compound at different concentrations were calculated in Excel, then the inhibition curve was plotted using GraphPad Prism software and relevant parameters, including the minimum inhibition rate, maximum inhibition rate, and IC50 were calculated. The IC50 was calculated using the following equation:
(§4) [formula] • X: log (concentration) • Y: response value, negatively correlated with X • HillSlope: slope factor

[3] = test system: COLO205; test: as above; assay type: cell-based, human; conditions: Rb+ colorectal cancer cells COLO205
Experimental: as §1, §2, §3, §4

[4] = test system: HCT116; test: as above; assay type: cell-based, human; conditions: Rb+ colorectal cancer cells HCT116
Experimental: as §1, §2, §3, §4

[5] = test system: HT-29; test: as above; assay type: cell-based, human; conditions: Rb+ colorectal cancer cells HT-29
Experimental: as §1, §2, §3, §4

[6] = test system: Hep3B(Rb−); test: as above; assay type: cell-based, human; conditions: Hep3B(Rb−) liver cancer cells
Experimental: as §1, §2, §3, §4

[7] = test system: Huh-7; test: as above; assay type: cell-based, human; conditions: Rb+ liver cancer cells Huh-7
Experimental: as §1, §2, §3, §4

[8] = test system: JHH-7; test: as above; assay type: cell-based, human; conditions: Rb+ liver cancer cells JHH-7
Experimental: as §1, §2, §3, §4

[9] = test system: MDA-MB-453; test: as above; assay type: cell-based, human; conditions: 4-7 days
Experimental: as §1, §2, §3, §4

[10] = test system: MDA-MB-468 (Rb−); test: as above; assay type: cell-based, human; conditions: 4-7 days
Experimental: as §1, §2, §3, §4

[11] = test system: MOLM-13; test: as above; assay type: cell-based, human; conditions: hematological tumor cells MOLM-13
Experimental: as §1, §2, §3, §4

[12] = test system: MV-4-11; test: as above; assay type: cell-based, human; conditions: hematological tumor cells MV-4-11
Experimental: as §1, §2, §3, §4

[13] = test system: NCI-H211; test: as above; assay type: cell-based, human; conditions: small cell lung cancer cells NCI-H211
Experimental: as §1, §2, §3, §4

[14] = test system: SK-MEL-5; test: as above; assay type: cell-based, human; conditions: melanoma SK-MEL-5
Experimental: as §1, §2, §3, §4

For CC(=O)c1c(C)c2cnc(Nc3ccc4c(c3)OC[C@@H]3CN(C5CCN(C)CC5)CCN43)nc2n(C2CCCC2)c1=O [Compound A], the “Experimental results (crystalline form by XRPD)” value (shortened to “Experimental results”) ([1]; n-Butanol/Anisole (v:v = 1:1), 25° C.) was “form A-I”, the “Experimental results” value ([1]; n-Butanol/Anisole (v:v = 1:1), 37° C.) was “form A-I” and the “Experimental results” value ([1]; suspension in n-Butanol, 25° C.) was “form A-I”. For the same molecule, the “Experimental results” value ([1]; suspension in n-Butanol, 37° C.) was “form A-I”, the inhibitory activity [2] was “good inhibitory activity” and the inhibitory activity [3] was “good inhibitory activity”. For the same molecule, the inhibitory activity [4] was “good inhibitory activity”, the inhibitory activity [5] was “good inhibitory activity” and the inhibitory effect [6] was “significant inhibitory effect”. For the same molecule, the maximum inhibition rate [6] was “exceeding 99%”, the inhibitory activity [7] was “good inhibitory activity” and the inhibitory activity [8] was “good inhibitory activity”. The “Maximum Inhibition Rate (%)” value [9] was ~100%, the “Maximum Inhibition Rate (%)” value [10] was “exceeding 99%” and the inhibitory activity [11] was “good inhibitory activity”. The inhibitory activity [12] was “good inhibitory activity”, the inhibitory activity [13] was “good inhibitory activity” and the inhibitory activity [14] was “good inhibitory activity”.
